From patent publication US20230278972A1, “SUBSTITUTED HALOALKYL SULFONANILIDE HERBICIDES” (FMC Corporation, priority 2020, published 2023)

Columns and labels:
Format in all cases: in vivo
[1] = system: blackgrass (Alopecurus myosuroides); assay: Test A postemergence, blackgrass; conditions: Postemergence, 0 to 100 scale (0 no effect, 100 complete control); for Plant response rating, Blackgrass: 125 g ai/ha; for Blackgrass plant response rating: 500 g ai/ha, visual injury vs untreated controls after approx. 10 days
Summary of the method: (§1)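 Directed soil spray at planting gave the preemergence treatment, while foliar application to one- to two-leaf seedlings (2–10 cm) gave the postemergence one; pots held a loam and sand mixture and chemicals were carried in a non-phytotoxic solvent with surfactant.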

[2] = system: pigweed (Amaranthus retroflexus); assay: Test A postemergence, pigweed; conditions: Postemergence, 0 to 100 scale (0 no effect, 100 complete control); for Plant response rating, Pigweed: 125 g ai/ha; for Pigweed plant response rating: 500 g ai/ha, visual injury vs untreated controls after approx. 10 days
Summary of the method: as §1

corn (Zea mays) = assay: Test A postemergence, corn; conditions: Postemergence, 0 to 100 scale (0 no effect, 100 complete control); for Plant response rating, Corn: 125 g ai/ha; for Corn plant response rating: 500 g ai/ha, visual injury vs untreated controls after approx. 10 days
Summary of the method: as §1

[3] = system: pigweed (Amaranthus retroflexus); assay: Test A preemergence, pigweed; conditions: for Pigweed plant response rating: visual injury on 0 to 100 scale (0 no effect, 100 complete control), approximately 10 days; for Plant response rating, Pigweed: 0 to 100 scale (0 no effect, 100 complete control)
From the text: Seeds of plant species selected from barnyardgrass (Echinochloa crus-galli), kochia (Bassia scoparia), ragweed (common ragweed, Ambrosia artemisiifolia), Ryegrass, Italian (Italian ryegrass, Lolium multiflorum), Foxtail, Giant (giant foxtail, Setaria faberi), and pigweed (Amaranthus retroflexus) were planted into a blend of loam soil and sand and treated preemergence with a directed soil spray using test chemicals formulated in a non-phytotoxic solvent mixture which included a surfactant. At the same time, plants selected from these weed species and also wheat (Triticum aestivum), corn (Zea mays), blackgrass (Alopecurus myosuroides), and galium (catchweed bedstraw, Galium aparine) were planted in pots containing the same blend of loam soil and sand and treated with postemergence applications of test chemicals formulated in the same manner. Plants ranged in height from 2 to 10 cm and were in the one- to two-leaf stage for the postemergence treatment. […] A dash (-) response means no test result.

kochia (Bassia scoparia) [4] = assay: Test A preemergence, kochia; conditions: Preemergence; for Kochia plant response rating: visual injury on 0 to 100 scale (0 no effect, 100 complete control), approximately 10 days; for Plant response rating, Kochia: 0 to 100 scale (0 no effect, 100 complete control)
Summary of the method: as §1

[5] = system: ragweed (common ragweed, Ambrosia artemisiifolia); assay: Test A postemergence, ragweed; conditions: Postemergence, 0 to 100 scale (0 no effect, 100 complete control); for Plant response rating, Ragweed: 125 g ai/ha; for Ragweed plant response rating: 500 g ai/ha, visual injury vs untreated controls after approx. 10 days
Summary of the method: as §1

[6] = system: Ryegrass, Italian (Italian ryegrass, Lolium multiflorum); assay: Test A preemergence, Ryegrass, Italian; conditions: Preemergence; for Ryegrass, Italian plant response rating: visual injury on 0 to 100 scale (0 no effect, 100 complete control), approximately 10 days; for Plant response rating, Ryegrass, Italian: 0 to 100 scale (0 no effect, 100 complete control)
Summary of the method: as §1

[7] = system: Foxtail, Giant (giant foxtail, Setaria faberi); assay: Test A preemergence, Foxtail, Giant; conditions: Preemergence; for Foxtail, Giant plant response rating: visual injury on 0 to 100 scale (0 no effect, 100 complete control), approximately 10 days; for Plant response rating, Foxtail, Giant: 0 to 100 scale (0 no effect, 100 complete control)
Summary of the method: as §1

kochia (Bassia scoparia) [8] = assay: Test A postemergence, kochia; conditions: Postemergence, 0 to 100 scale (0 no effect, 100 complete control); for Plant response rating, Kochia: 125 g ai/ha; for Kochia plant response rating: 500 g ai/ha, visual injury vs untreated controls after approx. 10 days
Summary of the method: as §1

[9] = system: ragweed (common ragweed, Ambrosia artemisiifolia); assay: Test A preemergence, ragweed; conditions: Preemergence; for Ragweed plant response rating: visual injury on 0 to 100 scale (0 no effect, 100 complete control), approximately 10 days; for Plant response rating, Ragweed: 0 to 100 scale (0 no effect, 100 complete control)
Summary of the method: as §1

[10] = system: wheat (Triticum aestivum); assay: Test A postemergence, wheat; conditions: Postemergence, 0 to 100 scale (0 no effect, 100 complete control); for Plant response rating, Wheat: 125 g ai/ha; for Wheat plant response rating: 500 g ai/ha, visual injury vs untreated controls after approx. 10 days
Summary of the method: (§2)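 Barnyardgrass, wheat and galium were treated postemergence at the one- to two-leaf stage (2 to 10 cm) with chemicals formulated in non-phytotoxic solvent plus surfactant, grown in loam soil–sand pots. Pigweed was sown in the same blend and given a preemergence directed soil spray.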

[11] = system: Ryegrass, Italian (Italian ryegrass, Lolium multiflorum); assay: Test A postemergence, Ryegrass, Italian; conditions: Postemergence, 0 to 100 scale (0 no effect, 100 complete control); for Plant response rating, Ryegrass, Italian: 125 g ai/ha; for Ryegrass, Italian plant response rating: 500 g ai/ha, visual injury vs untreated controls after approx. 10 days
Summary of the method: as §1

[12] = system: galium (catchweed bedstraw, Galium aparine); assay: Test A postemergence, galium; conditions: Postemergence, 0 to 100 scale (0 no effect, 100 complete control); for Plant response rating, Galium: 125 g ai/ha; for Galium plant response rating: 500 g ai/ha, visual injury vs untreated controls after approx. 10 days
Summary of the method: as §2

[13] = system: Foxtail, Giant (giant foxtail, Setaria faberi); assay: Test A postemergence, Foxtail, Giant; conditions: Postemergence, 0 to 100 scale (0 no effect, 100 complete control); for Plant response rating, Foxtail, Giant: 125 g ai/ha; for Foxtail, Giant plant response rating: 500 g ai/ha, visual injury vs untreated controls after approx. 10 days
Summary of the method: as §1

[14] = system: barnyardgrass (Echinochloa crus-galli); assay: Test A preemergence, barnyardgrass; conditions: Preemergence; for Barnyardgrass plant response rating: visual injury on 0 to 100 scale (0 no effect, 100 complete control), approximately 10 days; for Plant response rating, Barnyardgrass: 0 to 100 scale (0 no effect, 100 complete control)
Summary of the method: as §1

[15] = 125 g ai/ha, visual injury, approx. 10 days

Row | SMILES | Plant response rating, Blackgrass ([1]; visual injury approx. 10 days) | Blackgrass plant response rating [1] | Plant response rating, Pigweed ([2]; visual injury approx. 10 days) | Pigweed plant response rating [2] | Plant response rating, Corn (corn (Zea mays); visual injury approx. 10 days) | Corn plant response rating (corn (Zea mays)) | Pigweed plant response rating ([3]; 125 g ai/ha) | Plant response rating, Pigweed ([3]; 500 g ai/ha) | Kochia plant response rating (kochia (Bassia scoparia) [4]; 125 g ai/ha) | Plant response rating, Kochia (kochia (Bassia scoparia) [4]; 500 g ai/ha) | Ragweed plant response rating [5] | Plant response rating, Ryegrass, Italian ([6]; 500 g ai/ha) | Plant response rating, Foxtail, Giant ([7]; 500 g ai/ha) | Kochia plant response rating (kochia (Bassia scoparia) [8]) | Plant response rating, Ragweed ([9]; 500 g ai/ha) | Wheat plant response rating [10] | Ryegrass, Italian plant response rating [11] | Galium plant response rating [12] | Foxtail, Giant plant response rating [13] | Plant response rating, Barnyardgrass ([14]; 500 g ai/ha) | other results
1 | Cc1cc(C)c(N(S(=O)(=O)C(F)(F)F)S(=O)(=O)C(F)(F)F)cc1-c1cc(Cl)nn(C)c1=O [Compound 74] | 40 | 50 | 80 | 90 | 0 | 10 | 60 | 100 | 70 | 100 | 30 | 100 | 100 | 90 | 90 | 70 | 70 | 90 | 80 | 100 | Plant response rating, Ragweed ([5]; visual injury approx. 10 days): 0; Ryegrass, Italian plant response rating ([6]; 125 g ai/ha): 80; Foxtail, Giant plant response rating ([7]; 125 g ai/ha): 100; Plant response rating, Kochia (kochia (Bassia scoparia) [8]; visual injury approx. 10 days): 30; Ragweed plant response rating ([9]; 125 g ai/ha): 70; Plant response rating, Wheat ([10]; visual injury approx. 10 days): 60; Plant response rating, Ryegrass, Italian ([11]; visual injury approx. 10 days): 20; Plant response rating, Galium ([12]; visual injury approx. 10 days): 50; Plant response rating, Foxtail, Giant ([13]; visual injury approx. 10 days): 40; Barnyardgrass plant response rating ([14]; 125 g ai/ha): 90
2 | Cc1cc(-c2cc(N(S(=O)(=O)C(F)(F)F)S(=O)(=O)C(F)(F)F)c(C)cc2C)c(=O)n(C)n1 [Compound 75] | 30 | 70 | 40 | 80 | 0 | 0 | 80 | 100 | 80 | 100 | 50 | 100 | 100 | 80 | 80 | 70 | 60 | 90 | 90 | 100 | Plant response rating, Ragweed ([5]; visual injury approx. 10 days): 0; Ryegrass, Italian plant response rating ([6]; 125 g ai/ha): 80; Foxtail, Giant plant response rating ([7]; 125 g ai/ha): 100; Plant response rating, Kochia (kochia (Bassia scoparia) [8]; visual injury approx. 10 days): 20; Ragweed plant response rating ([9]; 125 g ai/ha): 20; Plant response rating, Wheat ([10]; visual injury approx. 10 days): 40; Plant response rating, Ryegrass, Italian ([11]; visual injury approx. 10 days): 20; Plant response rating, Galium ([12]; visual injury approx. 10 days): 70; Plant response rating, Foxtail, Giant ([13]; visual injury approx. 10 days): 30; Barnyardgrass plant response rating ([14]; 125 g ai/ha): 90
3 | Cc1cc(C)c(N(S(=O)(=O)C(F)(F)F)S(=O)(=O)C(F)(F)F)cc1-c1ccnn(C)c1=O [Compound 76] | 50 | 50 | 70 | 90 | 0 | 70 | 50 | 100 | 60 | 90 | 90 | 100 | 100 | 90 | 90 | 80 | 80 | 100 | 90 | 90 | Plant response rating, Ragweed ([5]; visual injury approx. 10 days): 60; Ryegrass, Italian plant response rating ([6]; 125 g ai/ha): 60; Foxtail, Giant plant response rating ([7]; 125 g ai/ha): 100; Plant response rating, Kochia (kochia (Bassia scoparia) [8]; visual injury approx. 10 days): 50; Ragweed plant response rating ([9]; 125 g ai/ha): 70; Plant response rating, Wheat ([10]; visual injury approx. 10 days): 40; Plant response rating, Ryegrass, Italian ([11]; visual injury approx. 10 days): 70; Plant response rating, Galium ([12]; visual injury approx. 10 days): 90; Plant response rating, Foxtail, Giant ([13]; visual injury approx. 10 days): 90; Barnyardgrass plant response rating ([14]; 125 g ai/ha): 90
4 | Cc1cc(C)c(N(S(=O)(=O)C(F)(F)F)S(=O)(=O)C(F)(F)F)cc1C1=NOC2(CCC2)C1 [Compound 196] | – | 0 | – | 50 | – | 0 | – | 100 | – | 80 | 30 | 70 | 100 | 20 | 0 | 0 | 30 | 80 | 0 | 90 | Plant response rating, Blackgrass [1]: 0; Plant response rating, Pigweed [2]: 30; Plant response rating, Corn (corn (Zea mays)): 0; Plant response rating, Pigweed [3, 15]: 50; Plant response rating, Kochia (kochia (Bassia scoparia) [4]; [15]): 70; Plant response rating, Ragweed [5]: 0; Plant response rating, Ryegrass, Italian [6, 15]: 20; Plant response rating, Foxtail, Giant [7, 15]: 30; Plant response rating, Kochia (kochia (Bassia scoparia) [8]): 10; Plant response rating, Ragweed [9, 15]: 0; Plant response rating, Wheat [10]: 0; Plant response rating, Ryegrass, Italian [11]: 0; Plant response rating, Galium [12]: 60; Plant response rating, Foxtail, Giant [13]: 0; Plant response rating, Barnyardgrass [14, 15]: 0
5 | Cc1cc(C)c(N(S(=O)(=O)C(F)(F)F)S(=O)(=O)C(F)(F)F)cc1C1=NOC2(CCCCC2)C1 [Compound 198] | – | 0 | – | 70 | – | 20 | – | 100 | – | 80 | 80 | 90 | 100 | 60 | 80 | 40 | 40 | 90 | 30 | 100 | Plant response rating, Blackgrass [1]: 10; Plant response rating, Pigweed [2]: 50; Plant response rating, Corn (corn (Zea mays)): 20; Plant response rating, Pigweed [3, 15]: 70; Plant response rating, Kochia (kochia (Bassia scoparia) [4]; [15]): 60; Plant response rating, Ragweed [5]: 20; Plant response rating, Ryegrass, Italian [6, 15]: 60; Plant response rating, Foxtail, Giant [7, 15]: 100; Plant response rating, Kochia (kochia (Bassia scoparia) [8]): 20; Plant response rating, Ragweed [9, 15]: 70; Plant response rating, Wheat [10]: 20; Plant response rating, Ryegrass, Italian [11]: 30; Plant response rating, Galium [12]: 70; Plant response rating, Foxtail, Giant [13]: 0; Plant response rating, Barnyardgrass [14, 15]: 80
